Measurements from patent publication US5071965A, “Novel TC-99M complexes” (Mallinckrodt Medical, Inc., priority 1989, dated 1991).

assay: Biodistribution of Tc-99m complexes in guinea pigs (heart uptake, heart/blood); settings: 5 minutes, Tc-99m complex
Description: The procedures used for determining biodistribution are as follows.
Guinea Pigs--The guinea pigs are anesthetized and the technetium complex is injected into the jugular vein after a cutdown. The animals are sacrificed after 5 minutes and the organs removed and counted as with the rats.
For guinea pigs, significant heart uptake is determined if the percentage of technetium in the heart is greater than 0.5% and the heart/blood ratio is greater than 1.

Row | SMILES | Guinea Pig Heart/Blood Ratio
1 | Cc1ccc(O)c(C=NCC(C)(CN=Cc2cc(C)ccc2O)CN=Cc2cc(C)ccc2O)c1 (stereo not shown) [R5=H, R6=H, R7=CH3, R8=H, R3=H, R4=CH3] | 18
2 | COc1ccc(C=NCC(C)(CN=Cc2ccc(OC)cc2O)CN=Cc2ccc(OC)cc2O)c(O)c1 (stereo not shown) [R5=H, R6=OCH3, R7=H, R8=H, R3=H, R4=CH3, 3-Methoxyphenol, 6,6'-[[2-[[[(4-methoxy-2-hydroxyphenyl)methylene]amino]methyl]-2-methyl-1,3-propanediyl]bis(nitrilomethylidyne)]bis-] | 16

same assay, conditions: jugular vein injection, 5 minutes, Tc-99m complex

Row | SMILES | 5 Minute Guinea Pig % HT Uptake [%]
3 | CC(C)COCC(CN=Cc1ccccc1O)(CN=Cc1ccccc1O)CN=Cc1ccccc1O (stereo not shown) [Phenol, 2,2'-[[2-[[[(2-hydroxyphenyl)methylene]amino]methyl]-2-(2-methylpropoxy)methyl-1,3-propandiyl]bis(nitrilomethylidyne)]-] | 1.72
4 | CCCCCOCC(CN=Cc1ccccc1O)(CN=Cc1ccccc1O)CN=Cc1ccccc1O (stereo not shown) [Phenol, 2,2'-[[2-[[[(2-hydroxyphenyl)methylene]amino]methyl]-2-pentyloxymethyl-1,3-propandiyl]bis(nitrilomethylidyne)]bis-] | 1.22
5 | CCC(C)OCC(CN=Cc1ccccc1O)(CN=Cc1ccccc1O)CN=Cc1ccccc1O (stereo not shown) [Phenol, 2,2'-[[2-[[[(2-hydroxyphenyl)methylene]amino]methyl]-(1-methylpropoxy)methyl-1,3-propanediyl]bis(nitrilomethylidyne)]bis-] | 1.55
6 | CC(C)OCC(CN=Cc1ccccc1O)(CN=Cc1ccccc1O)CN=Cc1ccccc1O (stereo not shown) [Phenol, 2,2'-[[2[[[(2-hydroxyphenyl)methylene]amino]methyl]-2-(1-methylethoxy)methyl-1,3-propanediyl]bis(nitrilomethylidyne)]bis-] | 0.57
7 | CCCCCC(CN=Cc1ccccc1O)(CN=Cc1ccccc1O)CN=Cc1ccccc1O (stereo not shown) [Phenol, 2,2'-[[2[[[(2-hydroxyphenyl)methylene]amino]methyl]-2-pentyl-1,3-propanediyl]bis(nitrilomethylidyne)]bis-] | 1.15
8 | CCCCOCC(CN=Cc1ccccc1O)(CN=Cc1ccccc1O)CN=Cc1ccccc1O (stereo not shown) [Phenol, 2,2'[[-[[[(2-hydroxyphenyl)methylene]amino]methyl]-2-butoxymethyl-1,3-propandiyl]bis(nitrilomethylidyne)]bis-] | 1.463
9 | Cc1ccc(C=NCC(C)(CN=Cc2ccc(C)cc2O)CN=Cc2ccc(C)cc2O)c(O)c1 (stereo not shown) [R5=H, R6=CH3, R7=H, R8=H, R3=H, R4=CH3, 3-Methylphenol, 6,6'-[[2-[[[(4-methyl-2-hydroxyphenyl)methylene]amino]methyl]-2-methyl-1,3-propanediyl]bis(nitrilomethylidyne)]bis-] | 1.51
10 | CC(CN=Cc1cc(C(F)(F)F)ccc1O)(CN=Cc1cc(C(F)(F)F)ccc1O)CN=Cc1cc(C(F)(F)F)ccc1O (stereo not shown) [R5=H, R6=H, R7=CF3, R8=H, R3=H, R4=CH3] | 0.51
11 | Cc1ccc(O)c(C=NCC(C)(CN=Cc2cc(C)ccc2O)CN=Cc2cc(C)ccc2O)c1 (stereo not shown) [R5=H, R6=H, R7=CH3, R8=H, R3=H, R4=CH3] | 1.82
12 | CC(CN=Cc1cc(F)ccc1O)(CN=Cc1cc(F)ccc1O)CN=Cc1cc(F)ccc1O (stereo not shown) [R5=H, R6=H, R7=F, R8=H, R3=H, R4=CH3] | 1.30
13 | Oc1ccccc1C=NCCN(CCN=Cc1ccccc1O)CCN=Cc1ccccc1O [R5=H, R6=H, R7=H, R8=H, R3=H, R4=--, tris(2-salicylideneiminoethyl)amine] | 0.84
14 | Oc1ccccc1C=NCC(CN=Cc1ccccc1O)CN=Cc1ccccc1O (stereo not shown) [R5=H, R6=H, R7=H, R8=H, R3=H, R4=H, phenol, 2,2'-[[2-[[[ (2-hydroxyphenyl)methylene]amino]methyl]-1,3-propanediyl]bis(nitrilomethylidyne)]bis-] | 1.29
15 | COc1cccc(O)c1C=NCC(C)(CN=Cc1c(O)cccc1OC)CN=Cc1c(O)cccc1OC (stereo not shown) [R5=H, R6=H, R7=H, R8=OCH3, R3=H, R4=CH3, 3-Methoxyphenol, 2,2'-[[2-[[[(6-methoxy-2-hydroxyphenyl)methylene]amino]methyl]-2-methyl-1,3-propanediyl]bis(nitrilomethylidyne)]bis-] | 1.55
16 | CSc1ccc(O)c(C=NCC(C)(CN=Cc2cc(SC)ccc2O)CN=Cc2cc(SC)ccc2O)c1 (stereo not shown) [R5=H, R6=H, R7=SCH3, R8=H, R3=H, R4=CH3, 4-methylthiophenol, 2,2'-[[2-[[[(5-methylthio-2-hydroxyphenyl)methylene]amino-]methyl]-2-methyl-1,3-propanediyl]bis(nitrilomethylidyne)]bis-] | 1.23
17 | COc1ccc(C=NCC(C)(CN=Cc2ccc(OC)cc2O)CN=Cc2ccc(OC)cc2O)c(O)c1 (stereo not shown) [R5=H, R6=OCH3, R7=H, R8=H, R3=H, R4=CH3, 3-Methoxyphenol, 6,6'-[[2-[[[(4-methoxy-2-hydroxyphenyl)methylene]amino]methyl]-2-methyl-1,3-propanediyl]bis(nitrilomethylidyne)]bis-] | 2.11
18 | CSc1ccc(C=NCC(C)(CN=Cc2ccc(SC)cc2O)CN=Cc2ccc(SC)cc2O)c(O)c1 (stereo not shown) [R5=H, R6=SCH3, R7=H, R8=H, R3=H, R4=CH3, 3-Methylthiophenol, 6,6'-[[2-[[[(4-methylthio-2-hydroxyphenyl)methylene]amino]methyl]-2-methyl-1,3-propanediyl]bis(nitrilomethylidyne)]bis-] | 1.72
19 | COC(=O)c1ccc(O)c(C=NCC(C)(CN=Cc2cc(C(=O)OC)ccc2O)CN=Cc2cc(C(=O)OC)ccc2O)c1 (stereo not shown) [methyl-4-hydroxybenzoate, 3,3'-[[2-[[[(5-carbomethoxy-2-hydroxyphenyl)methylene]amino]methyl]-2-methyl-1,3-propanediyl]bis(nitrilomethylidyne)]bis-] | 1.23
20 | COc1ccc(COCC(CN=Cc2ccccc2O)(CN=Cc2ccccc2O)CN=Cc2ccccc2O)cc1 (stereo not shown) [phenol, 2,2'-[[2-[[[2-hydroxyphenyl)methylene]amino]methyl]-2-(4-methoxyphenyl)methoxymethyl-1,3-propanediyl]bis(nitrilomethylidyne)]bis-] | 1.08
21 | CCCCCCCC(=O)OCC(CN=Cc1ccccc1O)(CN=Cc1ccccc1O)CN=Cc1ccccc1O (stereo not shown) [phenol, 2,2'-[[2-[[[(2-hydroxypheny)methylene]amino]methyl]-2-octanoyloxymethyl-1,3-propanediyl]bis(nitrilomethylidyne)]bis-] | 0.88
22 | COc1cc(COCC(CN=Cc2ccccc2O)(CN=Cc2ccccc2O)CN=Cc2ccccc2O)cc(OC)c1OC (stereo not shown) [phenol, 2,2'-[[2-[[[(2-hydroxyphenyl)methylene]amino]methyl]-2-(3,4,5-trimethoxyphenyl)methoxymethyl-1,3-propanediyl]bis(nitrilomethylidyne)]bis-] | 1.00
23 | CCOCC(CN=Cc1ccccc1O)(CN=Cc1ccccc1O)CN=Cc1ccccc1O (stereo not shown) [phenol, 2,2'-[[2-[[[(2-hydroxyphenyl)methylene]amino]methyl]-2-ethoxymethyl-1,3-propanediyl]bis(nitrilomethylidyne)]bis-] | 1.71
24 | COCCOCC(CN=Cc1ccccc1O)(CN=Cc1ccccc1O)CN=Cc1ccccc1O (stereo not shown) [phenol, 2,2'-[[2-[[[(2-hydroxyphenyl)methylene]amino]methyl]-2-methoxyethoxymethyl-1,3-propanediyl]bis(nitrilomethylidyne)]bis-] | 1.01
25 | COCC(CN=Cc1ccccc1O)(CN=Cc1ccccc1O)CN=Cc1ccccc1O (stereo not shown) [phenol, 2,2'-[[2-[[[(2-hydroxyphenyl)methylene]amino]methyl]-2-methoxymethyl-1,3-propanediyl]bis(nitrilomethylidyne)]bis-] | 1.44
